From PubChem BioAssay AID1919004 (Molecular Pharmacology Branch, DTP, NCI, 2023)

System: 883617-216-R-J1-PDC complex spheroids, growth, % test/control
Experiment: Anticancer human tumor 883617-216-R-J1-PDC patient-derived bladder carcinoma cell line growth inhibition [AhR]
Details: for IC50: curve of first compound; for viability, T/C: stronger effect = lower value
In short: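 Agents were dosed in half-log steps down from roughly clinical Cmax, or from 10 microM where Cmax was unknown, alone and with AhR antagonists. Read-out: percent test/control growth of tumor spheroids containing HUVEC and MSC stromal cells.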

[1] = second compound 0.1 µM, first compound 0.0316 µM
[2] = second compound 0.1 µM, first compound 0.1 µM
[3] = second compound 0.1 µM, first compound 0.316 µM
[4] = second compound 0.1 µM, first compound 1 µM
[5] = second compound 0.1 µM, first compound 3.16 µM
[6] = second compound 0.1 µM, first compound 10 µM
[7] = second compound 0.316 µM, first compound 0.0316 µM
[8] = second compound 0.316 µM, first compound 0.1 µM
[9] = second compound 0.316 µM, first compound 0.316 µM
[10] = second compound 0.316 µM, first compound 1 µM
[11] = second compound 0.316 µM, first compound 3.16 µM
[12] = second compound 0.316 µM, first compound 10 µM
[13] = second compound 1 µM, first compound 0.0316 µM
[14] = second compound 1 µM, first compound 0.1 µM
[15] = second compound 1 µM, first compound 0.316 µM
[16] = second compound 1 µM, first compound 1 µM
[17] = second compound 1 µM, first compound 3.16 µM
[18] = second compound 1 µM, first compound 10 µM
[19] = second compound 3.16 µM, first compound 0.0316 µM
[20] = second compound 3.16 µM, first compound 0.1 µM
[21] = second compound 3.16 µM, first compound 0.316 µM
[22] = second compound 3.16 µM, first compound 1 µM
[23] = second compound 3.16 µM, first compound 3.16 µM
[24] = second compound 3.16 µM, first compound 10 µM
[25] = second compound 10 µM, first compound 0.0316 µM
[26] = second compound 10 µM, first compound 0.1 µM
[27] = second compound 10 µM, first compound 0.316 µM
[28] = second compound 10 µM, first compound 1 µM
[29] = second compound 10 µM, first compound 3.16 µM
[30] = second compound 10 µM, first compound 10 µM
[31] = second compound 0.1 µM, first compound 0.00949 µM
[32] = second compound 0.1 µM, first compound 0.03 µM
[33] = second compound 0.1 µM, first compound 0.0949 µM
[34] = second compound 0.1 µM, first compound 0.3 µM
[35] = second compound 0.316 µM, first compound 0.00949 µM
[36] = second compound 0.316 µM, first compound 0.03 µM
[37] = second compound 0.316 µM, first compound 0.0949 µM
[38] = second compound 0.316 µM, first compound 0.3 µM
[39] = second compound 1 µM, first compound 0.00949 µM
[40] = second compound 1 µM, first compound 0.03 µM
[41] = second compound 1 µM, first compound 0.0949 µM
[42] = second compound 1 µM, first compound 0.3 µM
[43] = second compound 3.16 µM, first compound 0.00949 µM
[44] = second compound 3.16 µM, first compound 0.03 µM
[45] = second compound 3.16 µM, first compound 0.0949 µM
[46] = second compound 3.16 µM, first compound 0.3 µM
[47] = second compound 10 µM, first compound 0.00949 µM
[48] = second compound 10 µM, first compound 0.03 µM
[49] = second compound 10 µM, first compound 0.0949 µM
[50] = second compound 10 µM, first compound 0.3 µM
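Also: exposure lasted 7 days after dosing on day 3 of spheroid growth.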

With `CC1(C)CCC(CN2CCN(c3ccc(C(=O)NS(=O)(=O)c4ccc(NCC5CCOCC5)c([N+](=O)[O-])c4)c(Oc4cnc5[nH]ccc5c4)c3)CC2)=C(c2ccc(Cl)cc2)C1` + CC(CO)NC(=O)c1cc(-c2ccc(Cl)cc2)nn(-c2cnn(C)c2)c1=O the IC50 (second compound 0.1 µM) was > 10 µM, the IC50 (second compound 0.316 µM) was > 10 µM and the IC50 (second compound 1 µM) was > 10 µM. For the same compound, the IC50 (second compound 3.16 µM) was > 10 µM, the IC50 (second compound 10 µM) was > 10 µM and the viability, T/C [1] was 77%. It also gave a viability, T/C [2] of 90.8%, a viability, T/C [3] of 136% and a viability, T/C [4] of 95.4%. The viability, T/C [5] was 90.3%, the viability, T/C [6] was 59.4% and the viability, T/C [7] was 83.2%. The viability, T/C [8] was 93.9%, the viability, T/C [9] was 102% and the viability, T/C [10] was 88.2%. The viability, T/C [11] was 96.9%, the viability, T/C [12] was 68.5% and the viability, T/C [13] was 90.6%. It also gave a viability, T/C [14] of 114%, a viability, T/C [15] of 152% and a viability, T/C [16] of 71.4%. For the same compound, the viability, T/C [17] was 82.4%, the viability, T/C [18] was 78.2% and the viability, T/C [19] was 79.5%. It also gave a viability, T/C [20] of 132%, a viability, T/C [21] of 97.1% and a viability, T/C [22] of 115%. For the same compound, the viability, T/C [23] was 83.4%, the viability, T/C [24] was 68.7% and the viability, T/C [25] was 91.9%. The viability, T/C [26] was 143%, the viability, T/C [27] was 171% and the viability, T/C [28] was 83.9%. For the same compound, the viability, T/C [29] was 122% and the viability, T/C [30] was 103%.
`CC1COCCN1c1cc(C2(S(C)(=N)=O)CC2)nc(-c2ccnc3[nH]ccc23)n1` (stereo not given) + CC(CO)NC(=O)c1cc(-c2ccc(Cl)cc2)nn(-c2cnn(C)c2)c1=O was tested, and the IC50 (second compound 0.1 µM) was > 10 µM, the IC50 (second compound 0.316 µM) was > 10 µM and the IC50 (second compound 1 µM) was > 10 µM. For the same compound, the IC50 (second compound 3.16 µM) was > 10 µM, the IC50 (second compound 10 µM) was > 10 µM and the viability, T/C [1] was 155%. For the same compound, the viability, T/C [2] was 133%, the viability, T/C [3] was 120% and the viability, T/C [4] was 78.7%. For the same compound, the viability, T/C [5] was 86.9%, the viability, T/C [6] was 108% and the viability, T/C [7] was 73.3%. For the same compound, the viability, T/C [8] was 143%, the viability, T/C [9] was 107% and the viability, T/C [10] was 56.3%. It also gave a viability, T/C [11] of 70.1%, a viability, T/C [12] of 72.1% and a viability, T/C [13] of 142%. It also gave a viability, T/C [14] of 102%, a viability, T/C [15] of 152% and a viability, T/C [16] of 121%. It also gave a viability, T/C [17] of 103%, a viability, T/C [18] of 77.5% and a viability, T/C [19] of 103%. For the same compound, the viability, T/C [20] was 94.4%, the viability, T/C [21] was 132% and the viability, T/C [22] was 132%. The viability, T/C [23] was 86.2%, the viability, T/C [24] was 66.5% and the viability, T/C [25] was 127%. For the same compound, the viability, T/C [26] was 101%, the viability, T/C [27] was 125% and the viability, T/C [28] was 153%. It also gave a viability, T/C [29] of 107% and a viability, T/C [30] of 114%.
With `CCN(c1cc(-c2ccc(CN3CCOCC3)cc2)cc(C(=O)NCc2c(C)cc(C)[nH]c2=O)c1C)C1CCOCC1` + CC(CO)NC(=O)c1cc(-c2ccc(Cl)cc2)nn(-c2cnn(C)c2)c1=O the IC50 (second compound 0.1 µM) was > 3 µM, the IC50 (second compound 0.316 µM) was > 3 µM and the IC50 (second compound 1 µM) was > 3 µM. For the same compound, the IC50 (second compound 3.16 µM) was > 3 µM, the IC50 (second compound 10 µM) was 2.65 µM and the viability, T/C [31] was 94.7%. For the same compound, the viability, T/C [32] was 101%, the viability, T/C [33] was 75.5% and the viability, T/C [34] was 85.5%. It also gave a viability, T/C (second compound 0.1 µM, first compound 0.949 µM) of 118%, a viability, T/C (second compound 0.1 µM, first compound 3 µM) of 112% and a viability, T/C [35] of 83.9%. The viability, T/C [36] was 70.8%, the viability, T/C [37] was 76.5% and the viability, T/C [38] was 88.5%. The viability, T/C (second compound 0.316 µM, first compound 0.949 µM) was 77.7%, the viability, T/C (second compound 0.316 µM, first compound 3 µM) was 80.8% and the viability, T/C [39] was 96.1%. The viability, T/C [40] was 63.2%, the viability, T/C [41] was 92.5% and the viability, T/C [42] was 98.4%. The viability, T/C (second compound 1 µM, first compound 0.949 µM) was 124%, the viability, T/C (second compound 1 µM, first compound 3 µM) was 86% and the viability, T/C [43] was 80.7%. It also gave a viability, T/C [44] of 85%, a viability, T/C [45] of 122% and a viability, T/C [46] of 102%. The viability, T/C (second compound 3.16 µM, first compound 0.949 µM) was 60.4%, the viability, T/C (second compound 3.16 µM, first compound 3 µM) was 100% and the viability, T/C [47] was 62.8%. For the same compound, the viability, T/C [48] was 88.9%, the viability, T/C [49] was 74.5% and the viability, T/C [50] was 132%. The viability, T/C (second compound 10 µM, first compound 0.949 µM) was 98.5% and the viability, T/C (second compound 10 µM, first compound 3 µM) was 45%.
`Nc1ncn(C2CC(O)C(CO)S2)c(=O)n1` (stereo not given) + CC(CO)NC(=O)c1cc(-c2ccc(Cl)cc2)nn(-c2cnn(C)c2)c1=O was tested, and the IC50 (second compound 0.1 µM) was > 0.3 µM, the IC50 (second compound 0.316 µM) was 0.288 µM and the IC50 (second compound 1 µM) was > 0.3 µM. For the same compound, the IC50 (second compound 3.16 µM) was > 0.3 µM, the IC50 (second compound 10 µM) was > 0.3 µM and the viability, T/C (second compound 0.1 µM, first compound 0.000949 µM) was 65.6%. The viability, T/C (second compound 0.1 µM, first compound 0.003 µM) was 57.9%, the viability, T/C [31] was 65% and the viability, T/C [32] was 76.6%. For the same compound, the viability, T/C [33] was 80.2%, the viability, T/C [34] was 85.5% and the viability, T/C (second compound 0.316 µM, first compound 0.000949 µM) was 72.1%. It also gave a viability, T/C (second compound 0.316 µM, first compound 0.003 µM) of 112%, a viability, T/C [35] of 70.8% and a viability, T/C [36] of 104%. For the same compound, the viability, T/C [37] was 65.7%, the viability, T/C [38] was 49.2% and the viability, T/C (second compound 1 µM, first compound 0.000949 µM) was 69.9%. For the same compound, the viability, T/C (second compound 1 µM, first compound 0.003 µM) was 66.6%, the viability, T/C [39] was 78.5% and the viability, T/C [40] was 118%. The viability, T/C [41] was 43.9%, the viability, T/C [42] was 89.8% and the viability, T/C (second compound 3.16 µM, first compound 0.000949 µM) was 71%. The viability, T/C (second compound 3.16 µM, first compound 0.003 µM) was 80.3%, the viability, T/C [43] was 75.6% and the viability, T/C [44] was 76%. It also gave a viability, T/C [45] of 72.2%, a viability, T/C [46] of 92.9% and a viability, T/C (second compound 10 µM, first compound 0.000949 µM) of 67.4%. It also gave a viability, T/C (second compound 10 µM, first compound 0.003 µM) of 74.7%, a viability, T/C [47] of 76.2% and a viability, T/C [48] of 71.9%. It also gave a viability, T/C [49] of 102% and a viability, T/C [50] of 111%.
